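Following 48 hours of exposure in 96-well plates, responses at five concentrations were used to interpolate endpoints linearly. The concentration for 50% growth inhibition is given as GI50. The concentration for full growth arrest is given as TGI.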
Experiments:
Assay in all cases: NCI tumour cell line growth inhibition, 48 h
NCI-H460 lung = test system: NCI-H460 lung
PC-3 prostate = test system: PC-3 prostate
SK-MEL-28 melanoma = test system: SK-MEL-28 melanoma
U251 CNS = test system: U251 CNS
IGROV1 ovarian = test system: IGROV1 ovarian
A549 NSCLC = test system: A549 NSCLC
RXF 393 renal = test system: RXF 393 renal
SF-295 CNS = test system: SF-295 CNS
SK-MEL-2 melanoma = test system: SK-MEL-2 melanoma
UACC-257 melanoma = test system: UACC-257 melanoma
KM12 colon = test system: KM12 colon
UO-31 renal = test system: UO-31 renal
SF-268 CNS = test system: SF-268 CNS
HT29 colon = test system: HT29 colon
OVCAR-4 ovarian = test system: OVCAR-4 ovarian
SR leukemia = test system: SR leukemia
SNB-19 CNS = test system: SNB-19 CNS
SK-OV-3 ovarian = test system: SK-OV-3 ovarian
OVCAR-5 ovarian = test system: OVCAR-5 ovarian
UACC-62 melanoma = test system: UACC-62 melanoma
SF-539 CNS = test system: SF-539 CNS
HOP-92 NSCLC = test system: HOP-92 NSCLC
RPMI-8226 leukemia = test system: RPMI-8226 leukemia
HS 578T breast = test system: HS 578T breast
TK-10 renal = test system: TK-10 renal
MALME-3M melanoma = test system: MALME-3M melanoma
A498 renal = test system: A498 renal
CCRF-CEM leukemia = test system: CCRF-CEM leukemia
MDA-MB-231 breast = test system: MDA-MB-231 breast
ACHN renal = test system: ACHN renal
MOLT-4 leukemia = test system: MOLT-4 leukemia
SW-620 colon = test system: SW-620 colon
NCI-H522 lung = test system: NCI-H522 lung
SN12C renal = test system: SN12C renal
MDA-MB-435 = test system: MDA-MB-435
HL-60(TB) leukemia = test system: HL-60(TB) leukemia
CAKI-1 renal = test system: CAKI-1 renal
SK-MEL-5 melanoma = test system: SK-MEL-5 melanoma
COLO 205 colon = test system: COLO 205 colon
SNB-75 CNS = test system: SNB-75 CNS

## COc1ccc(/C=N/Nc2ccnc3cc(Cl)ccc23)cc1Cl
NCI-H460 lung
  GI50: 2040 nM
  TGI: 4030 nM
PC-3 prostate
  GI50: 1640 nM
  TGI: 3120 nM
SK-MEL-28 melanoma
  GI50: 1750 nM
  TGI: 3210 nM
U251 CNS
  GI50: 1740 nM
  TGI: 3370 nM
IGROV1 ovarian
  GI50: 1910 nM
  TGI: 3710 nM
A549 NSCLC
  GI50: 1770 nM
  TGI: 3570 nM
RXF 393 renal
  GI50: 1750 nM
  TGI: 3210 nM
SF-295 CNS
  GI50: 1790 nM
  TGI: 3360 nM
SK-MEL-2 melanoma
  GI50: 1790 nM
  TGI: 3330 nM
UACC-257 melanoma
  GI50: 1690 nM
  TGI: 3290 nM
KM12 colon
  GI50: 2080 nM
  TGI: 4320 nM
UO-31 renal
  GI50: 1680 nM
  TGI: 3100 nM
SF-268 CNS
  GI50: 1900 nM
  TGI: 3690 nM
HT29 colon
  GI50: 1530 nM
  TGI: 3010 nM
OVCAR-4 ovarian
  GI50: 1830 nM
  TGI: 3560 nM
SR leukemia
  GI50: 707 nM
  TGI: 5510 nM
SNB-19 CNS
  GI50: 1930 nM
  TGI: 3730 nM
SK-OV-3 ovarian
  GI50: 1820 nM
  TGI: 3270 nM
OVCAR-5 ovarian
  GI50: 1850 nM
  TGI: 3490 nM
UACC-62 melanoma
  GI50: 1760 nM
  TGI: 3270 nM
SF-539 CNS
  GI50: 1800 nM
  TGI: 3260 nM
HOP-92 NSCLC
  GI50: 1380 nM
  TGI: 2950 nM
RPMI-8226 leukemia
  GI50: 2200 nM
  TGI: 5240 nM
HS 578T breast
  GI50: 1990 nM
  TGI: 4280 nM
TK-10 renal
  GI50: 1740 nM
  TGI: 3120 nM
MALME-3M melanoma
  GI50: 1900 nM
  TGI: 3540 nM
A498 renal
  GI50: 1720 nM
  TGI: 3220 nM
CCRF-CEM leukemia
  GI50: 2140 nM
  TGI: 5930 nM
MDA-MB-231 breast
  GI50: 1930 nM
  TGI: 3550 nM
ACHN renal
  GI50: 1950 nM
  TGI: 3420 nM
MOLT-4 leukemia
  GI50: 2200 nM
  TGI: 5350 nM
SW-620 colon
  GI50: 1900 nM
  TGI: 3760 nM
NCI-H522 lung
  GI50: 1690 nM
  TGI: 3300 nM
SN12C renal
  GI50: 1750 nM
  TGI: 3440 nM
MDA-MB-435
  GI50: 1790 nM
  TGI: 3390 nM
HL-60(TB) leukemia
  GI50: 1960 nM
  TGI: 4790 nM
CAKI-1 renal
  GI50: 1680 nM
  TGI: 3100 nM
SK-MEL-5 melanoma
  GI50: 1770 nM
  TGI: 3210 nM
COLO 205 colon
  GI50: 1820 nM
  TGI: 3370 nM
SNB-75 CNS
  GI50: 1550 nM
  TGI: 3060 nM

From PubChem BioAssay (NCI)
